Data as given in patent publication US12303592B2, “Formulations for parenteral delivery of compounds and uses thereof” (Wyeth, LLC, priority 2006, dated 2025).

Experiment: Stopper compatibility evaluation (Table 14), HPLC Method A; on RRT 0.38: key: BRL=below recordable limit; on RRT 0.49: key: BRL=below recordable limit; on RRT 0.67: key: BRL=below recordable limit; on RRT 0.79: key: BRL=below recordable limit; on RRT 0.89: key: BRL=below recordable limit; on RRT 1.17: key: BRL=below recordable limit; on RRT 1.55: key: BRL=below recordable limit; on RRT 1.89: key: BRL=below recordable limit; on RRT 1.96: key: BRL=below recordable limit; on RRT 2.01: key: BRL=below recordable limit; on RRT 2.26: key: BRL=below recordable limit
Type: physicochemical
Set-up: RRT 1.77 / Total / RRT 1.66: unit not given here
Description: Identical preparations prepared as described in Example 4 were stored in parallel in vials having either a 13 mm WPS S2-F451 4432/50 Gray B2-40 Westar RS stopper (West Pharmaceutical Services) or a 13 mm S2-F451 RS D 777-1 RB2 40 stopper (Daikyo Seiko, Ltd) under various conditions. Each of the stoppers has a FluoroTec® fluorocarbon film; the Westar 4432/50 stopper is chlorobutyl rubber, while the RB2-40 RS D 777-1 stopper is bromobutyl rubber. The presence of accumulation of degradant was assessed for each of the configurations (HPLC Method A).

[1] = RS-D 777-1 B2 40 from Daikyo Seiko Ltd. at 40° C., 4 hours
[2] = RS-D 777-1 B2 40 from Daikyo Seiko Ltd. at Room Temperature, 1 hours
[3] = RS-D 777-1 B2 40 from Daikyo Seiko Ltd. at Room Temperature, 4 hours
[4] = Westar RS stopper (West Pharmaceutical Services) at 40° C., 1 hours
[5] = Westar RS stopper (West Pharmaceutical Services) at 40° C., 4 hours
[6] = Westar RS stopper (West Pharmaceutical Services) at Room Temperature, 1 hours
[7] = Westar RS stopper (West Pharmaceutical Services) at Room Temperature, 4 hours

SMILES: C[N+]1(CC2CC2)CC[C@]23c4c5ccc(O)c4O[C@H]2C(=O)CC[C@@]3(O)[C@H]1C5 (stereo partly shown) [MNTX, methylnaltrexone bromide]
- RRT 1.66 [1]: 0.12
- RRT 1.77 [1]: 0.05
- RRT 1.89 [1]: BRL
- RRT 1.96 [1]: BRL
- RRT 2.01 [1]: BRL
- RRT 2.26 [1]: BRL
- Total [1]: 0.17
- Initial [2]: 20.3 mg
- RRT 0.38 [2]: BRL
- RRT 0.49 [2]: BRL
- RRT 0.67 [2]: BRL
- RRT 0.79 [2]: BRL
- RRT 0.89 [2]: BRL
- RRT 1.17 [2]: BRL
- RRT 1.55 [2]: BRL
- RRT 1.66 [2]: 0.12
- RRT 1.77 [2]: BRL
- RRT 1.89 [2]: BRL
- RRT 1.96 [2]: BRL
- RRT 2.01 [2]: BRL
- RRT 2.26 [2]: BRL
- Total [2]: 0.12
- Initial [3]: 20.2 mg
- RRT 0.38 [3]: BRL
- RRT 0.49 [3]: BRL
- RRT 0.67 [3]: BRL
- RRT 0.79 [3]: BRL
- RRT 0.89 [3]: BRL
- RRT 1.17 [3]: BRL
- RRT 1.55 [3]: BRL
- RRT 1.66 [3]: 0.12
- RRT 1.77 [3]: BRL
- RRT 1.89 [3]: BRL
- RRT 1.96 [3]: BRL
- RRT 2.01 [3]: BRL
- RRT 2.26 [3]: BRL
- Total [3]: 0.12
- Initial [4]: 20.1 mg
- RRT 0.38 [4]: BRL
- RRT 0.49 [4]: BRL
- RRT 0.67 [4]: BRL
- RRT 0.79 [4]: BRL
- RRT 0.89 [4]: BRL
- RRT 1.17 [4]: BRL
- RRT 1.55 [4]: BRL
- RRT 1.66 [4]: 0.06
- RRT 1.77 [4]: BRL
- RRT 1.89 [4]: BRL
- RRT 1.96 [4]: BRL
- RRT 2.01 [4]: BRL
- RRT 2.26 [4]: BRL
- Total [4]: 0.06
- Initial [5]: 20.2 mg
- RRT 0.38 [5]: BRL
- RRT 0.49 [5]: BRL
- RRT 0.67 [5]: BRL
- RRT 0.79 [5]: BRL
- RRT 0.89 [5]: BRL
- RRT 1.17 [5]: BRL
- RRT 1.55 [5]: BRL
- RRT 1.66 [5]: 0.06
- RRT 1.77 [5]: 0.05
- RRT 1.89 [5]: BRL
- RRT 1.96 [5]: BRL
- RRT 2.01 [5]: BRL
- RRT 2.26 [5]: BRL
- Total [5]: 0.06
- Initial [6]: 20.3 mg
- RRT 0.38 [6]: BRL
- RRT 0.49 [6]: BRL
- RRT 0.67 [6]: BRL
- RRT 0.79 [6]: BRL
- RRT 0.89 [6]: BRL
- RRT 1.17 [6]: BRL
- RRT 1.55 [6]: BRL
- RRT 1.66 [6]: 0.06
- RRT 1.77 [6]: BRL
- RRT 1.89 [6]: BRL
- RRT 1.96 [6]: BRL
- RRT 2.01 [6]: BRL
- RRT 2.26 [6]: BRL
- Total [6]: 0.06
- Initial [7]: 20.1 mg
- RRT 0.38 [7]: BRL
- RRT 0.49 [7]: BRL
- RRT 0.67 [7]: BRL
- RRT 0.79 [7]: BRL
- RRT 0.89 [7]: BRL
- RRT 1.17 [7]: BRL
- RRT 1.55 [7]: BRL
- RRT 1.66 [7]: 0.06
- RRT 1.77 [7]: BRL
- RRT 1.89 [7]: BRL
- RRT 1.96 [7]: BRL
- RRT 2.01 [7]: BRL
- RRT 2.26 [7]: BRL
- Total [7]: 0.06
